Reference: patent publication US20190192699A1, “NUCLEAR IMAGING AND RADIOTHERAPEUTICS AGENTS TARGETING CARBONIC ANHYDRASE IX AND USES THEREOF” (THE JOHNS HOPKINS UNIVERSITY, priority 2016, published 2019)
“Also recorded” adds a separate entry of the source.

Assays:
CAIX = CAIX (Homo sapiens, UniProt Q16790); test: In vitro uptake of [177Lu]XYIMSR-01; type: cell-based; design: host or cells: ccRCC tumours in patients
[1] = system: CAIX-expressing SK-RC-52 tumors; test: SPECT/CT imaging of [177Lu]XYIMSR-01; type: in vivo, mice; details: intravenous
Protocol: (§1) Cell Lines and Mouse Models. Animal experiments were performed in accordance with protocols approved by the Johns Hopkins Animal Care and Use Committee (ACUC). Six-week-old female NOD/SCID mice were purchased from the Animal Resource Core of the Sidney Kimmel Comprehensive Cancer Center of Johns Hopkins and were subcutaneously injected in the lower left flank or upper right flank with 1×10^6 SK-RC-52 cells in RPMI 1640 GlutaMAX™ media (Life Technologies, Frederick, Md.) supplemented with 1% fetal bovine serum (FBS). Mice were monitored for tumor size and used for SPECT/CT imaging when the size of the tumor reached 100 mm^3.
SPECT/CT imaging of [^177Lu]XYIMSR-01. Mice were injected with 1.7 mCi of [^177Lu]XYIMSR-01 in 250 uL of PBS (pH7.0) intravenously, anesthetized under 3% isofluorane prior to being placed on the scanner bed and kept warm with an external light source while being scanned. Isofluorane levels were decreased to 1% throughout the scanning process in order to ensure mouse survival. Imaging of mice was then carried out using a CT-equipped Gamma Medica-Ideas SPECT scanner (Northridge, Calif.). A CT scan was performed at the end of each SPECT scan for anatomical co-registration. CT and SPECT scans were performed at 1, 4, 8, 24, and 48 hrs post injection of the [^177Lu]XYIMSR-01. Obtained data sets were subsequently reconstructed using the provided Gamma Medica-Ideas software. […]

SK-RC-52 xenografts [2] = test: Radio-therapy of [177Lu]XYIMSR-01, tumor growth; type: in vivo, mice; details: 11.1 MBq (300 μCi) and 18.5 MBq (500 μCi) i.v., n=4
Protocol: as §1
Radio-therapy of [^177Lu]XYIMSR-01. Mice bearing SK-RC-52 xenografts at lower left flank were injected intravenously with PBS, 11.1 MBq (300 μCi) and 18.5 MBq (500 μCi) of [^177Lu]XYIMSR-01 in 200 μL of PBS (n=4). Size of the tumors was measured twice a week after the injection. […] The P-values were 0.042 and 0.031 for the 11.1 and […] doses, respectively.

SK-RC-52 xenografts [3] = test: Biodistribution of [111In]XYIMSR-01 and [177Lu]XYIMSR-01; type: in vivo, mice
Protocol: as §1
Biodistribution of [^111In]XYIMSR-01 and [^177Lu]XYIMSR-01. Mice bearing SK-RC-52 xenografts at lower left flank were injected intravenously with 740 kBq (20 μCi) of [^111In]XYIMSR-01, or [^177Lu]XYIMSR-01 in 200 μL of PBS. For competitive blocking, same tumor bearing mice were injected with 740 kBq (20 μCi) of [^111In]XYIMSR-01 and 200 nmole of 1 in 200 μL of PBS. At 1 h, 4 h, 8 h, 24 h and 48 h post-injection, mice were sacrificed by cervical dislocation and the blood was immediately collected by cardiac puncture. Heart, lungs, pancreas, spleen, fat, brain, muscle, small intestines, liver, stomach, kidney, urinary bladder, and tumor were collected. Each organ was weighed and the tissue radioactivity was measured with an automated gamma counter (1282 Compugamma CS, Pharmacia/LKBNuclear, Inc., Mt. Waverly, Vic. Australia). The percentage of injected dose per gram of tissue (% ID/g) was calculated by comparison with samples of a standard dilution of the initial dose. All measurements were corrected for radioactive decay.
Data were expressed as mean±standard deviation (SD). Prism software (GraphPAD, San Diego, Calif.) was used to determine statistical significance. Statistical significance was calculated using a paired t test. P-values […] were considered significant.

[4] = 24 hr + Block (200 nmole of 1 co-injected)
[5] = 48 hr + Block (200 nmole of 1 co-injected)

## CC(CCC(=O)N[C@@H](CC(=O)N[C@@H](CC(=O)N[C@@H](CCCCn1cc(CCCC(=O)Nc2nnc(S(N)(=O)=O)s2)nn1)C(=O)NCCOCCOCCNC(=O)CN1CCN(CC(=O)[O-])CCN(CC(=O)[O-])CCN(CC(=O)[O-])CC1)C(=O)O)C(=O)O)(c1ccc(O)cc1)c1ccc(O)cc1.[177Lu+3] [[^177Lu]XYIMSR-01]
CAIX
  uptake in vitro: CAIX specific uptake in vitro
[1]
  SPECT/CT tumor imaging finding: radiotracer uptake in tumor as early as 1 h post-injection; also recorded: tumor visualization by 1 h post-injection
SK-RC-52 xenografts [2]
  tumor growth compared with control non-treated mice: Delays in tumor growth; also recorded: significant therapeutic effect in controlling tumor growth
SK-RC-52 xenografts [3]; 1 hr post-injection
  Biodistribution: Bladder: 26.55 ± 11.08 % ID/g
  Biodistribution: Blood: 0.55 ± 0.06 % ID/g
  Biodistribution: Brain: 0.49 ± 0.08 % ID/g
  Biodistribution: Fat: 1.07 ± 0.58 % ID/g
  Biodistribution: Heart: 3.59 ± 0.73 % ID/g
  Biodistribution: Kidney: 40.77 ± 6.68 % ID/g
  Biodistribution: Liver: 4.15 ± 0.39 % ID/g
  Biodistribution: Lung: 23.72 ± 6.49 % ID/g
  Biodistribution: Muscle: 1.42 ± 0.40 % ID/g
  Biodistribution: Pancreas: 2.03 ± 0.25 % ID/g
  Biodistribution: Small intestine: 6.11 ± 0.68 % ID/g
  Biodistribution: Spleen: 0.29 ± 0.07 % ID/g
  Biodistribution: Stomach: 12.20 ± 1.66 % ID/g
  Biodistribution: Tumor: 26.91 ± 6.06 % ID/g
  Tumor/Blood ratio: 47.9 ± 13.4
  Tumor/Kidney ratio: 0.6 ± 0.2
  Tumor/Muscle ratio: 18.8 ± 5.0
SK-RC-52 xenografts [3]; 4 hr post-injection
  Biodistribution: Bladder: 6.60 ± 3.66 % ID/g
  Biodistribution: Blood: 0.18 ± 0.02 % ID/g
  Biodistribution: Brain: 0.33 ± 0.04 % ID/g
  Biodistribution: Fat: 0.56 ± 0.14 % ID/g
  Biodistribution: Heart: 1.52 ± 0.54 % ID/g
  Biodistribution: Kidney: 19.17 ± 2.82 % ID/g
  Biodistribution: Liver: 1.79 ± 0.44 % ID/g
  Biodistribution: Lung: 10.35 ± 1.86 % ID/g
  Biodistribution: Muscle: 0.65 ± 0.19 % ID/g
  Biodistribution: Pancreas: 0.99 ± 0.19 % ID/g
  Biodistribution: Small intestine: 2.64 ± 0.17 % ID/g
  Biodistribution: Spleen: 0.15 ± 0.03 % ID/g
  Biodistribution: Stomach: 6.06 ± 1.57 % ID/g
  Biodistribution: Tumor: 26.28 ± 4.25 % ID/g
  Tumor/Blood ratio: 150.3 ± 34.6
  Tumor/Kidney ratio: 1.4 ± 0.4
  Tumor/Muscle ratio: 43.7 ± 16.8
SK-RC-52 xenografts [3]; 8 hr post-injection
  Biodistribution: Bladder: 6.00 ± 3.52 % ID/g
  Biodistribution: Blood: 0.16 ± 0.05 % ID/g
  Biodistribution: Brain: 0.44 ± 0.08 % ID/g
  Biodistribution: Fat: 0.46 ± 0.17 % ID/g
  Biodistribution: Heart: 1.49 ± 0.59 % ID/g
  Biodistribution: Kidney: 18.99 ± 6.14 % ID/g
  Biodistribution: Liver: 1.87 ± 0.77 % ID/g
  Biodistribution: Lung: 8.87 ± 3.30 % ID/g
  Biodistribution: Muscle: 0.47 ± 0.18 % ID/g
  Biodistribution: Pancreas: 1.03 ± 0.50 % ID/g
  Biodistribution: Small intestine: 3.67 ± 0.93 % ID/g
  Biodistribution: Spleen: 0.29 ± 0.05 % ID/g
  Biodistribution: Stomach: 6.15 ± 2.65 % ID/g
  Biodistribution: Tumor: 27.48 ± 4.32 % ID/g
  Tumor/Blood ratio: 178.6 ± 36.6
  Tumor/Kidney ratio: 1.5 ± 0.3
  Tumor/Muscle ratio: 65.0 ± 19.0
SK-RC-52 xenografts [3]; [4]
  Biodistribution: Bladder: 0.73 ± 0.55 % ID/g
  Biodistribution: Blood: 0.04 ± 0.02 % ID/g
  Biodistribution: Brain: 0.04 ± 0.01 % ID/g
  Biodistribution: Fat: 0.03 ± 0.03 % ID/g
  Biodistribution: Heart: 0.08 ± 0.04 % ID/g
  Biodistribution: Kidney: 1.54 ± 1.44 % ID/g
  Biodistribution: Liver: 0.46 ± 0.34 % ID/g
  Biodistribution: Lung: 0.73 ± 0.58 % ID/g
  Biodistribution: Muscle: 0.03 ± 0.01 % ID/g
  Biodistribution: Pancreas: 0.05 ± 0.03 % ID/g
  Biodistribution: Small intestine: 0.18 ± 0.07 % ID/g
  Biodistribution: Spleen: 0.38 ± 0.32 % ID/g
  Biodistribution: Stomach: 0.21 ± 0.07 % ID/g
  Biodistribution: Tumor: 1.70 ± 0.79 % ID/g
  Tumor/Blood ratio: 42.0 ± 20.9
  Tumor/Kidney ratio: 1.4 ± 0.6
  Tumor/Muscle ratio: 58.6 ± 25.3
SK-RC-52 xenografts [3]; 24 hr post-injection
  Biodistribution: Bladder: 1.29 ± 1.10 % ID/g
  Biodistribution: Blood: 0.02 ± 0.01 % ID/g
  Biodistribution: Brain: 0.28 ± 0.10 % ID/g
  Biodistribution: Fat: 0.05 ± 0.04 % ID/g
  Biodistribution: Heart: 0.28 ± 0.14 % ID/g
  Biodistribution: Kidney: 3.11 ± 1.59 % ID/g
  Biodistribution: Liver: 0.47 ± 0.21 % ID/g
  Biodistribution: Lung: 1.48 ± 0.59 % ID/g
  Biodistribution: Muscle: 0.10 ± 0.05 % ID/g
  Biodistribution: Pancreas: 0.16 ± 0.07 % ID/g
  Biodistribution: Small intestine: 0.96 ± 0.32 % ID/g
  Biodistribution: Spleen: 0.20 ± 0.07 % ID/g
  Biodistribution: Stomach: 1.02 ± 0.56 % ID/g
  Biodistribution: Tumor: 12.51 ± 3.02 % ID/g
  Tumor/Blood ratio: 607.4±200.7
  Tumor/Kidney ratio: 4.5±1.4
  Tumor/Muscle ratio: 128.4±25.4
SK-RC-52 xenografts [3]; [5]
  Biodistribution: Bladder: 0.28 ± 0.09 % ID/g
  Biodistribution: Blood: 0.04 ± 0.07 % ID/g
  Biodistribution: Brain: 0.02 ± 0.00 % ID/g
  Biodistribution: Fat: 0.02 ± 0.01 % ID/g
  Biodistribution: Heart: 0.04 ± 0.01 % ID/g
  Biodistribution: Kidney: 0.39 ± 0.05 % ID/g
  Biodistribution: Liver: 0.23 ± 0.04 % ID/g
  Biodistribution: Lung: 0.18 ± 0.05 % ID/g
  Biodistribution: Muscle: 0.01 ± 0.00 % ID/g
  Biodistribution: Pancreas: 0.02 ± 0.00 % ID/g
  Biodistribution: Small intestine: 0.05 ± 0.01 % ID/g
  Biodistribution: Spleen: 0.15 ± 0.06 % ID/g
  Biodistribution: Stomach: 0.09 ± 0.02 % ID/g
  Biodistribution: Tumor: 0.65 ± 0.10 % ID/g
  Tumor/Blood ratio: 42.7 ± 23.7
  Tumor/Kidney ratio: 1.7 ± 0.3
  Tumor/Muscle ratio: 62.5 ± 34.5
SK-RC-52 xenografts [3]; 48 hr post-injection
  Biodistribution: Bladder: 0.20 ± 0.01 % ID/g
  Biodistribution: Blood: 0.04 ± 0.01 % ID/g
  Biodistribution: Brain: 0.17 ± 0.03 % ID/g
  Biodistribution: Fat: 0.03 ± 0.01 % ID/g
  Biodistribution: Heart: 0.12 ± 0.17 % ID/g
  Biodistribution: Kidney: 0.76 ± 0.11 % ID/g
  Biodistribution: Liver: 0.19 ± 0.03 % ID/g
  Biodistribution: Lung: 0.90 ± 0.05 % ID/g
  Biodistribution: Muscle: 0.04 ± 0.01 % ID/g
  Biodistribution: Pancreas: 0.06 ± 0.01 % ID/g
  Biodistribution: Small intestine: 0.20 ± 0.05 % ID/g
  Biodistribution: Spleen: 0.13 ± 0.04 % ID/g
  Biodistribution: Stomach: 0.35 ± 0.04 % ID/g
  Biodistribution: Tumor: 5.82 ± 2.14 % ID/g
  Tumor/Blood ratio: 200.2 ± 101.7
  Tumor/Kidney ratio: 7.1 ± 1.8
  Tumor/Muscle ratio: 141.5 ± 71.7
